Measured values as given in US20250250264A1, “KIF18A INHIBITOR AND USE THEREOF” (Wuhan Humanwell Innovative Drug Research and Development …, priority 2022, published 2025).

What was measured:
[1] = target: recombinant protein KIF18A (kinesin domain: aa 1-467) (Homo sapiens (Human), UniProt Q8NI77); assay: Assay on inhibition of KIF18A enzymatic activity (ADP-Glo); assay type: biochemical; details: KIF18A 80 nM, ATP 80 μM, 3 h at room temperature, ADP-Glo luminescence; read-out: IC50 (μM), inhibitory effects of compounds on KIF18A enzymatic activity
Source text: The recombinant protein KIF18A (kinesin domain: aa 1-467) used in this assay was expressed by the Bac-to-Bac baculovirus expression system from Invitrogen, and the resulting protein was purified for use in this assay (Seki, M. et al. 2003 Nucleic Acids Res.). Quantitative detection of KIF18A enzymatic activity was completed using an ADP-Glo™ kinase assay kit (Promega Inc). Related procedures strictly followed the product instructions, which are briefly described as follows:
The reaction system consisted of a test compound, the recombinant protein KIF18A (aa 1-467), ATP (Promega Inc), and an assay buffer. The test compound was prepared into a 0.5 mM stock solution using DMSO (Sigma Inc) and then serially diluted in DMSO. The assay buffer consisted of an aqueous solution of 15 mM Tris, 10 mM MgCl2 (Sigma Inc), 0.01% Pluronic F-68 (Life Technologies Inc), 1 μM paclitaxel (Cytoskeleton Inc), 30 μg/mL porcine tubulin (Cytoskeleton Inc), and 2% DMSO. The KIF18A protein (final concentration: 80 nM) and the compound at different concentrations (1 μL) were added to the prepared assay buffer (50 μL), and the mixture was incubated at room temperature for 15 min. Then, ATP (final concentration: 80 μM) was added to the reaction mixture, and the resulting mixture was incubated at room temperature for 3 h. After the reaction was completed, 5 μL of the ADP-Glo™ reagent and 2.5 μL of the reaction mixture were added to a 384-well plate (Grenier Inc). The resulting mixture was mixed homogeneously, then sealed by an aluminum foil sealing film, and incubated at room temperature in the dark for 40 min. Finally, 10 μL of the […] was added to each reaction well, and the mixture was incubated at room temperature in the dark for 40 min. After all reactions were completed, the luminescence values of the wells were read on a microplate reader (Molecular Device_SpectraMax Id5), and the inhibition ratios were calculated. The calculation formula for the inhibition rates was as follows: inhibition rate=(1−(compound group−blank group)/(negative control group−blank group))×100%. Then, based on the inhibition rates at different compound concentrations, the IC50 value of the test compound was calculated using the GraphPad Prism 8 software.

[2] = test system: NIH:OVCAR-3 cells; assay: Assay on inhibition of OVCAR3 tumor cell proliferation (CellTiter-Glo); assay type: cell-based; details: Homo sapiens, OVCAR-3, 72 h, 3 days of drug treatment, read-out: IC50 (μM), inhibitory effects of compounds on tumor cell proliferation
Experimental: NIH:OVCAR-3 cells (ATCC, Cat No. HTB-161, purchased from Co-Bier) were seeded into a T75 culture flask and cultured in an RPMI 1640 medium containing 20% FBS for 3 days in preparation for subsequent culturing and seeding into a 96-well plate for the cell proliferation assay.
The OVCAR3 cells were seeded at a density of 3000 cells/100 μL/well into the 96-well cell plate, and then the plate was incubated in an incubator (37° C., 5% CO2) for 18 h. On the second day, drug treatment was started. Serially diluted test compound solutions (each drug starting at a concentration of 10 μM, diluted in DMSO, with a dilution ratio of 1:3, and nine gradient points for each drug) or DMSO (negative control) was added to the medium in the plate at 100 μL/well, and a blank group was set up with only medium, but no seeded cell strains. After the drug addition, the plate was incubated in the incubator for another 3 days (37° C., 5% CO2). On the fourth day, plate detection was performed. To each well, 100 μL of CellTiter-Glo reagent (Promega G9243) was added. The plate was shaken for 5 min and then left to stand at room temperature for 5 min. The chemical luminescence signal value of each well was determined using a microplate reader (PerkinElmer EnVision®2104). Cell proliferation inhibition rate=(1−(compound group−blank group)/(DMSO group−blank group))×100%. Then, the IC50 value of each compound was calculated using the GraphPad Prism 8 software.

Chain of recombinant protein KIF18A (kinesin domain: aa 1-467) (Q8NI77 1-467): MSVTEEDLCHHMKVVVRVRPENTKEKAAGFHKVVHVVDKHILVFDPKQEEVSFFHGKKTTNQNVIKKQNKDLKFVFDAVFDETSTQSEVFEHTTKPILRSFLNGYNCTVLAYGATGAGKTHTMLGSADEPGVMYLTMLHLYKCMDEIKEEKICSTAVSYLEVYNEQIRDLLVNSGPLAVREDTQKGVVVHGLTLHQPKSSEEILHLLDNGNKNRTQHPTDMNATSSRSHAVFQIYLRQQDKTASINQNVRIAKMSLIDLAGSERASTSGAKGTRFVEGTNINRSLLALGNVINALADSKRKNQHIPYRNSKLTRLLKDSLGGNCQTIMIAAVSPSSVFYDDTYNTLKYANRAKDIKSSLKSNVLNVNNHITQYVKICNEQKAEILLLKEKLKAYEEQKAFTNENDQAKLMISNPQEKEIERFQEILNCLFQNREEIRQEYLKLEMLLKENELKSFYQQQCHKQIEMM
Chain of recombinant protein KIF18A (kinesin domain: aa 1-467) (P02550 whole entry partner, the tested form may be a part): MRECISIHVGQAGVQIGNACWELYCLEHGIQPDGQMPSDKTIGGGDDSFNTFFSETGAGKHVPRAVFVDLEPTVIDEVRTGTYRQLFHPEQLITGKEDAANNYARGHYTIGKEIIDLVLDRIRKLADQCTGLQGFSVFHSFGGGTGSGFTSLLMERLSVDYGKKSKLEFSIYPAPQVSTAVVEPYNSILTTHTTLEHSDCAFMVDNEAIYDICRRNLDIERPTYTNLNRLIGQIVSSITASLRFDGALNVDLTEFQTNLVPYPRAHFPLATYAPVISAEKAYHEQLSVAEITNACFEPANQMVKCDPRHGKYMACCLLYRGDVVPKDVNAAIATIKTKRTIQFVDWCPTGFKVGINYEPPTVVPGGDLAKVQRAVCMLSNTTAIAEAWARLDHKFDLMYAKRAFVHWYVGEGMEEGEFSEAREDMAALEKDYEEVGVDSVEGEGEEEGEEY
Chain of recombinant protein KIF18A (kinesin domain: aa 1-467) (P02554 whole entry partner, the tested form may be a part): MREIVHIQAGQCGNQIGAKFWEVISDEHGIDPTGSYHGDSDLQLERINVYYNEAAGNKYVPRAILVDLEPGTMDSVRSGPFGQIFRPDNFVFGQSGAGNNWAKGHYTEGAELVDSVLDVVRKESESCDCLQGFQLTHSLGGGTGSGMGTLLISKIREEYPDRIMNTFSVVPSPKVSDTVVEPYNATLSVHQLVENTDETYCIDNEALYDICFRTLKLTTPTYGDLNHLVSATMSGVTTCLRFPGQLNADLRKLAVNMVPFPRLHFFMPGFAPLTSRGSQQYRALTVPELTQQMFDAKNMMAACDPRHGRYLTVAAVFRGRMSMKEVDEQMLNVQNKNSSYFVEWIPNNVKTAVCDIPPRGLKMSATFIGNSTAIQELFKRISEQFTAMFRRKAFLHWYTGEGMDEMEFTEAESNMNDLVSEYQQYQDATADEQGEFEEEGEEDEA

Row | Compound | IC50 [1] | IC50 [2]
1 | Cc1cc(-c2nnc(-c3ccc(NS(=O)(=O)CCO)cc3N3CCC4(CC3)CC4)s2)nc(N2CCCC(F)(F)C2)n1 [Example I-85, N-(4-(5-(2-(3,3-Difluoropiperidin-1-yl)-6-methylpyrimidin-4-yl)-1,3,4-thiadiazol-2-yl)-3-(6-azaspiro[2.5]octan-6-yl)phenyl)-2-hydroxyethane-1-sulfonamide] | 0.022 µM | 0.284 µM
2 | Cc1cc(-c2nnc(-c3ccc(NS(=O)(=O)CCO)cc3N3CCC4(CC3)CC4)o2)nc(N2CC3CC3C2)n1 (stereo not drawn) [Example I-86, N-(4-(5-(2-(3-azabicyclo[3.1.0]hexan-3-yl)-6-methylpyrimidin-4-yl)-1,3,4-oxadiazol-2-yl)-3-(6-azaspiro[2.5]octan-6-yl)phenyl)-2-hydroxyethane-1-sulfonamide] | 0.003 µM | 0.07 µM
3 | Cc1cc(-c2nnc(-c3ccc(NS(=O)(=O)CCO)cc3N3CCC4(CC3)CC4)o2)nc(N2CCC(F)(F)CC2)c1 [Example I-87, N-(4-(5-(6-(4,4-Difluoropiperidin-1-yl)-4-methylpyridin-2-yl)-1,3,4-oxadiazol-2-yl)-3-(6-azaspiro [2.5]octan-6-yl)phenyl)-2-hydroxyethanesulfonamide] | 0.004 µM | 0.144 µM
4 | Cc1cc(-c2nnc(-c3ccc(NS(=O)(=O)CCO)cc3N3CCC4(CC3)CC4)o2)nc(N2CC3C(C2)C3(F)F)n1 (stereo not drawn) [Example I-88, N-(4-(5-(2-(6,6-Difluoro-3-azabicyclo[3.1.0]hexan-3-yl)-6-methylpyrimidin-4-yl)-1,3,4-oxadiazol-2-yl)-3-(6-azaspiro[2.5]octan-6-yl)phenyl)-2-hydroxyethane-1-sulfonamide] | 0.001 µM | 0.015 µM
5 | Cc1cc(-c2nnc(-c3ccc(NS(=O)(=O)CCO)cc3N3CCC4(CC3)CC4)o2)nc(N2CC(F)(F)CC(F)(F)C2)n1 [Example I-100, N-(4-(5-(6-Methyl-2-(3,3,5,5-tetrafluoropiperidin-1-yl)pyrimidin-4-yl)-1,3,4-oxadiazol-2-yl)-3-(6-azaspiro[2.5]octan-6-yl)phenyl)-2-hydroxyethane-1-sulfonamide] | 0.01 µM | 0.115 µM
6 | Cc1cc(-c2nnc(-c3ccc(NS(=O)(=O)CCO)cc3N3CCC4(CC3)CC4)o2)nc(N2C[C@@H](F)[C@@H](F)C2)n1 [Example I-101, N-(4-(5-(2-((3S,4R)-3,4-Difluoropyrrolidin-1-yl)-6-methylpyrimidin-4-yl)-1,3,4-oxadiazol-2-yl)-3-(6-azaspiro[2.5]octan-6-yl)phenyl)-2-hydroxyethane-1-sulfonamide] | 0.008 µM | 0.26 µM
7 | Cc1cc(-c2nnc(-c3ccc(NS(=O)(=O)CCO)cc3N3CCC4(CC3)CC4)o2)nc(N2CCCC(F)C2)n1 (stereo not drawn) [Example I-102, N-(4-(5-(2-(3-Fluoropiperidin-1-yl)-6-methylpyrimidin-4-yl)-1,3,4-oxadiazol-2-yl)-3-(6-azaspiro[2.5]octan-6-yl)phenyl)-2-hydroxyethane-1-sulfonamide] | 0.004 µM | 0.144 µM
8 | Cc1cc(-c2nnc(-c3ccc(NS(=O)(=O)CCO)cc3N3CCC4(CC3)CC4)o2)cc(N2CCC(F)CC2)n1 [Example I-105, N-(4-(5-(2-(4-Fluoropiperidin-1-yl)-6-methylpyridin-4-yl)-1,3,4-oxadiazol-2-yl)-3-(6-azaspiro [2.5]octan-6-yl)phenyl)-2-hydroxyethane-sulfonamide] | 0.002 µM | 0.033 µM
9 | O=S(=O)(CCO)Nc1ccc(-n2cc(-c3cc(C(F)F)nc(N4CCC(F)(F)CC4)c3)cn2)c(N2CCC3(CC2)CC3)c1 [Example I-107, N-(4-(4-(2-(Difluoromethyl)-6-(4,4-difluoropiperidin-1-yl)pyridin-4-yl)-1H-pyrazol-1-yl)-3-(6-azaspiro[2.5]octan-6-yl)phenyl)-2-hydroxyethane-1-sulfonamide] | 0.008 µM | 0.213 µM
10 | O=S(=O)(CCO)Nc1ccc(-n2cc(-c3ccnc(N4CCC(F)(F)CC4)n3)cn2)c(N2CCC3(CC2)CC3)c1 [Example I-109, N-(4-(4-(2-(4,4-Difluoropiperidin-1-yl)pyrimidin-4-yl)-1H-pyrazol-1-yl)-3-(6-azaspiro[2.5]octan-6-yl)phenyl)-2-hydroxyethane-1-sulfonamide] | 0.005 µM | 0.066 µM

Now from value to compound:

Row | IC50 [1] | IC50 [2] | Compound
11 | 0.004 µM | 0.038 µM | Cc1cc(-c2cn(-c3ccc(NS(=O)(=O)CCO)cc3N3CCC4(CC3)CC4)nn2)nc(N2CCC(F)(F)CC2)n1 [Example I-79, N-(4-(4-(2-(4,4-Difluoropiperidin-1-yl)-6-methylpyrimidin-4-yl)-1H-1,2,3-triazol-1-yl)-3-(6-azaspiro[2.5]octan-6-yl)phenyl)-2-hydroxyethane-1-sulfonamide]
12 | 0.002 µM | 0.412 µM | CCc1cc(-c2cnn(-c3ccc(NS(=O)(=O)CCO)cc3N3CCC4(CC3)CC4)c2)nc(N2CCC(F)(F)CC2)n1 [Example I-95, N-(4-(4-(2-(4,4-Difluoropiperidin-1-yl)-6-ethylpyrimidin-4-yl)-1H-pyrazol-1-yl)-3-(6-azaspiro[2.5]octan-6-yl)phenyl)-2-hydroxyethane-1-sulfonamide]
13 | 0.011 µM | 0.208 µM | Cc1cc(-c2cnn(-c3ccc(NS(=O)(=O)CCO)cc3N3CCC(F)(F)CC3)c2)nc(N2CCC(F)(F)CC2)n1 [Example I-106, N-(3-(4,4-Difluoropiperidin-1-yl)-4-(4-(2-(4,4-difluoropiperidin-1-yl)-6-methylpyrimidin-4-yl)-1H-pyrazol-1-yl)phenyl)-2-hydroxyethane-1-sulfonamide]
14 | 0.002 µM | 0.061 µM | Cc1cc(-c2cnn(-c3ccc(NS(=O)(=O)CCO)cc3N3CCC4(CC3)CC4)c2)nc(C2CCC(F)(F)CC2)n1 [Example I-110, N-(4-(4-(2-(4,4-Difluorocyclohexyl)-6-methylpyrimidin-4-yl)-1H-pyrazol-1-yl)-3-(6-azaspiro[2.5]octan-6-yl)phenyl)-2-hydroxyethane-1-sulfonamide]
15 | 0.005 µM | 0.073 µM | Cc1cc(-c2cnn(-c3ccc(NS(=O)(=O)[C@H](C)CO)cc3N3CCC4(CC3)CC4)c2)nc(N2CCC(F)(F)CC2)n1 [Example I-111, (R)—N-(4-(4-(2-(4,4-Difluoropiperidin-1-yl)-6-methylpyrimidin-4-yl)-1H-pyrazol-1-yl)-3-(6-azaspiro[2.5]octan-6-yl)phenyl)-1-hydroxypropane-2-sulfonamide]
16 | 0.002 µM | 0.107 µM | Cc1cc(-c2cnn(-c3ccc(NS(=O)(=O)[C@@H](C)CO)cc3N3CCC4(CC3)CC4)c2)nc(N2CCC(F)(F)CC2)n1 [Example I-112, (S)—N-(4-(4-(2-(4,4-Difluoropiperidin-1-yl)-6-methylpyrimidin-4-yl)-1H-pyrazol-1-yl)-3-(6-azaspiro[2.5]octan-6-yl)phenyl)-1-hydroxypropane-2-sulfonamide]
17 | 0.007 µM | 0.051 µM | Cc1cc(-c2cnn(-c3ccc(NS(=O)(=O)CCO)cc3N3CCC4(CC3)CC4)c2)nc(N2CC3C(C2)C3(F)F)n1 (stereo not drawn) [Example I-113, N-(4-(4-(2-(6,6-Difluoro-3-azabicyclo[3.1.0]hexan-3-yl)-6-methylpyrimidin-4-yl)-1H-pyrazol-1-yl)-3-(6-azaspiro[2.5]octan-6-yl)phenyl)-2-hydroxyethane-1-sulfonamide]
18 | 0.007 µM | 0.076 µM | Cc1cc(-c2cnn(-c3ccc(NS(=O)(=O)CCO)cc3N3CCC4(CC3)CC4)c2)nc(N2CCC(F)CC2)n1 [Example I-114, N-(4-(4-(2-(4-Fluoropiperidin-1-yl)-6-methylpyrimidin-4-yl)-1H-pyrazol-1-yl)-3-(6-azaspiro[2.5]octan-6-yl)phenyl)-2-hydroxyethane-1-sulfonamide]
